Data reported in publication PMC12649549, “Sequence Permutation Generated Lysine and Tryptophan-Rich Antimicrobial Peptides with Enhanced Therapeutic Index” (Antibiotics, 2025).
Where two headings read alike, the source gives them in different places.

Columns and labels:
Gram-positive bacteria = experiment: Geometric mean MIC and therapeutic index, Gram-positive bacteria; format: cell-based; settings: Gram-positive bacteria; for GM G+ (geometric mean of the MIC values): MH broth, MIC >50 µg/mL counted as 100 µg/mL; for Therapeutic Index (TI) G+: HC10/GM
Procedure: (§1) In this study, we aimed to investigate the potential of W5K series peptides for therapeutic use. To evaluate their efficacy for antibacterial therapy, we used the Therapeutic Index (TI) as a measure of their cell selectivity. The TI was calculated as the ratio of the concentration causing 10% hemolysis of human red blood cells (HC10) to the geometric mean minimum inhibitory concentration (GM) of the peptides against both Gram-negative and Gram-positive bacteria. This parameter was used to quantitatively assess the balance between antibacterial potency and cytotoxicity among the W5K derivatives.
(§2) The antibacterial activities of the peptides in Müller-Hinton (MH) broth and modified LYM broth were determined using the standard broth microdilution method as per Clinical and Laboratory Standards Institute (CLSI) guidelines. The LYM broth was prepared with specific components and adjusted to different conditions, including varying concentrations of NaCl and MgCl2, and different pH levels. To prepare the LYM broth, 5.4 mM KCl, 5.6 mM Na2HPO4, 0.5 mM MgSO4, and 1.0 mM sodium citrate were added. Additionally, 0.4 mg of ZnCl2, 2.0 mg of FeCl3·6H2O, 0.1 mg of CuSO4·5H2O, 0.1 mg of MnSO4·H2O, 0.1 mg of Na2B4O7∙10H2O, 700 mg of amino acid mixtures without tryptophan (Takara Bio Inc., San Jose, CA, USA), and 20 mg of L-tryptophan were added per liter of medium. The pH was adjusted to 7.4, and a vitamin mixture (100X, Sigma) and glucose concentration of 2% were added. For different conditions of LYM broth, NaCl concentrations of 300, 200, 150, and 50 mM, MgCl2 concentrations of 2.5, 1.5, and 0.5 mM, and pH levels of 6.5, 5.5, and 4.5 were adjusted. Bacterial strains were incubated in MH broth overnight, regrown, and diluted to a final concentration of 5 × 10^5 CFU/mL. Peptides were added to each well at final concentrations of 50, 25, 12.5, 6.25, 3.13, 1.56, and 0.78 µg/mL, and 99 µL of diluted microbes was loaded into each well of a polypropylene 96-well plate. […] The Morpheus HeatMap software (https://software.broadinstitute.org/morpheus/) was used to display MIC values on a color scale. All experiments were independently repeated three times.

Gram-negative bacteria = experiment: Geometric mean MIC and therapeutic index, Gram-negative bacteria; format: cell-based; settings: Gram-negative bacteria; for GM G− (geometric mean of the MIC values): MH broth, MIC >50 µg/mL counted as 100 µg/mL; for Therapeutic Index (TI) G−: HC10/GM
Procedure: as §1, §2

S. aureus ATCC 6538 = tested on: S. aureus ATCC 6538
Procedure: (§3) The antibacterial and salt-resistant activity of the peptides was tested using Escherichia coli (ATCC 25922), Pseudomonas aeruginosa Migula (ATCC 27853), Acinetobacter sp. (BCRC number 14B0091, BCRC number 14B0097, and BCRC number 14B0100), and Staphylococcus aureus sp. strains (ATCC 25923, ATCC 33591, ATCC 33592, ATCC 33593, and ATCC 6538). All bacteria were obtained from the Food Industry Research and Development Institute (Hsinchu, Taiwan) and cultured in sterilized Müller-Hinton (MH) broth at 37 °C and 200 rpm for 8 h. The inoculum concentrations were determined by measuring the optical density at 600 nm (OD 600 = 1, approximately 10^8 CFU/mL) using an Ultrospec 2100 pro UV-Visible spectrophotometer (Biochrom Ltd., Cambridge, UK) after 8 h of culture.
as §2

[1] = tested on: A. baumannii 14B0097 (Acinetobacter sp., BCRC number 14B0097)
Procedure: as §3, §2

S. aureus ATCC 33592 = tested on: S. aureus ATCC 33592
Procedure: as §3
as §2, with “For different conditions of LYM broth, NaCl concentrations of 300, 200, 150, and 50 mM, MgCl2 concentrations of 2.5, 1.5, and 0.5 mM, and pH levels of 6.5, 5.5, and 4.5 were adjusted.” left out

[2] = LYM broth, 0 mM NaCl, 16 h, 37 °C
[3] = LYM broth, 50 mM NaCl, 16 h, 37 °C
[4] = LYM broth, 100 mM NaCl, 16 h, 37 °C
[5] = LYM broth, 200 mM (NaCl), 16 h, 37 °C
[6] = LYM broth, 300 mM (NaCl), 16 h, 37 °C
[7] = MH broth, 5 × 10^5 CFU/mL, 16 h, 37 °C, repeated three times

Substance | GM G+ (geometric mean of the MIC values) (Gram-positive bacteria) [µg/mL] | Therapeutic Index (TI) G+ (Gram-positive bacteria) | GM G− (geometric mean of the MIC values) (Gram-negative bacteria) [µg/mL] | Therapeutic Index (TI) G− (Gram-negative bacteria) | MIC (S. aureus ATCC 6538; [2]) [µg/mL] | MIC (S. aureus ATCC 6538; LYM broth, 0.5 mM MgCl2) [µg/mL] | MIC (S. aureus ATCC 6538; LYM broth, 1.5 mM MgCl2) [µg/mL] | MIC (S. aureus ATCC 6538; LYM broth, 2.5 mM MgCl2) [µg/mL] | MIC (S. aureus ATCC 6538; [3]) [µg/mL] | MIC (S. aureus ATCC 6538; [4]) [µg/mL] | MIC (S. aureus ATCC 6538; [5]) [µg/mL] | MIC (S. aureus ATCC 6538; [6]) [µg/mL] | MIC (S. aureus ATCC 6538; LYM broth, pH 4.5) [µg/mL] | MIC (S. aureus ATCC 6538; LYM broth, pH 5.5) [µg/mL] | MIC (S. aureus ATCC 6538; LYM broth, pH 6.5) [µg/mL] | MIC (S. aureus ATCC 6538; [7]) [µg/mL] | MIC [1, 2] [µg/mL] | MIC ([1]; LYM broth, 0.5 mM MgCl2) [µg/mL] | MIC ([1]; LYM broth, 1.5 mM MgCl2) [µg/mL] | MIC ([1]; LYM broth, 2.5 mM MgCl2) [µg/mL] | further results
Ac-LAKKKKWRKWLKW-NH2 [Peptide W5K09] | 75.8 | 1.4 | 33.0 | 3.3 | 6.25 | 3.13 | 3.13 | 3.13 | 6.25 | 12.5 | 12.5 | 50 | 6.25 | 3.13 | 3.13 | >50 | 3.13 | 3.13 | 3.13 | 3.13 | MIC [1, 3]: 3.13 µg/mL; MIC [1, 4]: 12.5 µg/mL; MIC [1, 5]: 50 µg/mL; MIC [1, 6]: >50 µg/mL; MIC ([1]; LYM broth, pH 4.5): 6.25 µg/mL; MIC ([1]; LYM broth, pH 5.5): 3.13 µg/mL; MIC ([1]; LYM broth, pH 6.5): 1.56 µg/mL; MIC [1, 7]: 25 µg/mL; MIC (S. aureus ATCC 33592; [2]): 25 µg/mL; MIC (S. aureus ATCC 33592; LYM broth, 0.5 mM MgCl2): 25 µg/mL; MIC (S. aureus ATCC 33592; LYM broth, 1.5 mM MgCl2): 25 µg/mL; MIC (S. aureus ATCC 33592; LYM broth, 2.5 mM MgCl2): 50 µg/mL; MIC (S. aureus ATCC 33592; [3]): 25 µg/mL; MIC (S. aureus ATCC 33592; [4]): 50 µg/mL; MIC (S. aureus ATCC 33592; [5]): 50 µg/mL; MIC (S. aureus ATCC 33592; [6]): >50 µg/mL; MIC (S. aureus ATCC 33592; LYM broth, pH 4.5): 25 µg/mL; MIC (S. aureus ATCC 33592; LYM broth, pH 5.5): 12.5 µg/mL; MIC (S. aureus ATCC 33592; LYM broth, pH 6.5): 12.5 µg/mL; MIC (S. aureus ATCC 33592; [7]): >50 µg/mL
Ac-WLKWLAKKKKWRK-NH2 [Peptide W5K05] | 33.0 | 3.3 | 12.5 | 8.7 | 3.13 | 1.56 | 1.56 | 3.13 | 3.13 | 6.25 | 12.5 | 25 | 3.13 | 1.56 | 1.56 | 12.5 | 1.56 | 1.56 | 1.56 | 1.56 | MIC [1, 3]: 3.13 µg/mL; MIC [1, 4]: 3.13 µg/mL; MIC [1, 5]: 6.25 µg/mL; MIC [1, 6]: 25 µg/mL; MIC ([1]; LYM broth, pH 4.5): 3.13 µg/mL; MIC ([1]; LYM broth, pH 5.5): 1.56 µg/mL; MIC ([1]; LYM broth, pH 6.5): 1.56 µg/mL; MIC [1, 7]: 6.25 µg/mL; MIC (S. aureus ATCC 33592; [2]): 6.25 µg/mL; MIC (S. aureus ATCC 33592; LYM broth, 0.5 mM MgCl2): 12.5 µg/mL; MIC (S. aureus ATCC 33592; LYM broth, 1.5 mM MgCl2): 12.5 µg/mL; MIC (S. aureus ATCC 33592; LYM broth, 2.5 mM MgCl2): 12.5 µg/mL; MIC (S. aureus ATCC 33592; [3]): 12.5 µg/mL; MIC (S. aureus ATCC 33592; [4]): 12.5 µg/mL; MIC (S. aureus ATCC 33592; [5]): 25 µg/mL; MIC (S. aureus ATCC 33592; [6]): 50 µg/mL; MIC (S. aureus ATCC 33592; LYM broth, pH 4.5): 6.25 µg/mL; MIC (S. aureus ATCC 33592; LYM broth, pH 5.5): 6.25 µg/mL; MIC (S. aureus ATCC 33592; LYM broth, pH 6.5): 3.13 µg/mL; MIC (S. aureus ATCC 33592; [7]): 50 µg/mL
Ac-KKWRKWLKWLAKK-NH2 [W5K/A9W] | 8.2 | 3.6 | 2.1 | 14.5 | 1.56 | 1.56 | 1.56 | 1.56 | 1.56 | 1.56 | 3.13 | 6.25 | 3.13 | 1.56 | 1.56 | 6.25 | 1.56 | 1.56 | 1.56 | 1.56 | MIC [1, 3]: 1.56 µg/mL; MIC [1, 4]: 1.56 µg/mL; MIC [1, 5]: 1.56 µg/mL; MIC [1, 6]: 1.56 µg/mL; MIC ([1]; LYM broth, pH 4.5): 1.56 µg/mL; MIC ([1]; LYM broth, pH 5.5): 1.56 µg/mL; MIC ([1]; LYM broth, pH 6.5): 1.56 µg/mL; MIC [1, 7]: 1.56 µg/mL; MIC (S. aureus ATCC 33592; [2]): 3.13 µg/mL; MIC (S. aureus ATCC 33592; LYM broth, 0.5 mM MgCl2): 3.13 µg/mL; MIC (S. aureus ATCC 33592; LYM broth, 1.5 mM MgCl2): 3.13 µg/mL; MIC (S. aureus ATCC 33592; LYM broth, 2.5 mM MgCl2): 3.13 µg/mL; MIC (S. aureus ATCC 33592; [3]): 3.13 µg/mL; MIC (S. aureus ATCC 33592; [4]): 3.13 µg/mL; MIC (S. aureus ATCC 33592; [5]): 6.25 µg/mL; MIC (S. aureus ATCC 33592; [6]): 12.5 µg/mL; MIC (S. aureus ATCC 33592; LYM broth, pH 4.5): 3.13 µg/mL; MIC (S. aureus ATCC 33592; LYM broth, pH 5.5): 3.13 µg/mL; MIC (S. aureus ATCC 33592; LYM broth, pH 6.5): 3.13 µg/mL; MIC (S. aureus ATCC 33592; [7]): 12.5 µg/mL
Ac-AKKKKWRKWLKWL-NH2 [Peptide W5K10] | 9.5 | 11.5 | 3.1 | 34.8 | 1.56 | 1.56 | 1.56 | 1.56 | 1.56 | 3.13 | 6.25 | 12.5 | 6.25 | 3.13 | 1.56 | 6.25 | 1.56 | 1.56 | 1.56 | 3.13 | MIC [1, 3]: 1.56 µg/mL; MIC [1, 4]: 1.56 µg/mL; MIC [1, 5]: 1.56 µg/mL; MIC [1, 6]: 6.25 µg/mL; MIC ([1]; LYM broth, pH 4.5): 3.13 µg/mL; MIC ([1]; LYM broth, pH 5.5): 1.56 µg/mL; MIC ([1]; LYM broth, pH 6.5): 1.56 µg/mL; MIC [1, 7]: 1.56 µg/mL; MIC (S. aureus ATCC 33592; [2]): 3.13 µg/mL; MIC (S. aureus ATCC 33592; LYM broth, 0.5 mM MgCl2): 3.13 µg/mL; MIC (S. aureus ATCC 33592; LYM broth, 1.5 mM MgCl2): 3.13 µg/mL; MIC (S. aureus ATCC 33592; LYM broth, 2.5 mM MgCl2): 3.13 µg/mL; MIC (S. aureus ATCC 33592; [3]): 6.25 µg/mL; MIC (S. aureus ATCC 33592; [4]): 6.25 µg/mL; MIC (S. aureus ATCC 33592; [5]): 12.5 µg/mL; MIC (S. aureus ATCC 33592; [6]): 25 µg/mL; MIC (S. aureus ATCC 33592; LYM broth, pH 4.5): 3.13 µg/mL; MIC (S. aureus ATCC 33592; LYM broth, pH 5.5): 3.13 µg/mL; MIC (S. aureus ATCC 33592; LYM broth, pH 6.5): 3.13 µg/mL; MIC (S. aureus ATCC 33592; [7]): 12.5 µg/mL
